# Results: paper PMC7719162, “Positioning of an unprecedented spiro[5.5]undeca ring system into kinase inhibitor space” (Scientific Reports, 2020)
# Read-outs that look alike come from different tables or passages of the source.
# Key:
# [1] = test system: NO production in LPS-activated BV-2 cells; experiment: NO production assay (Griess) in LPS-activated BV-2 cells; type: cell-based, murine; conditions: Mus musculus, read-out: NO Inhibition IC50
# Protocol: (§1) 3-(4,5-dimethylthiazol-2-yl)-2,5-diphenyl-tetrazolium bromide (MTT) assay was performed to evaluate the cytotoxicity of the samples to the microglia. BV2 cells at the density of 4 × 10^4 cells /well were seeded in the 96 well plate and incubated for 24 h. Seeded cells were pre-treated with different concentration of the samples, and LPS (100 ng/ml) activation was performed after 30 min of compound treatment. Treated plate were incubated for 24 h in the incubator and nitric oxide assay and cell viability assay was performed. Treated cell’s conditioned medium was used to evaluate the NO assay, and the attached cells were used to evaluate the cell viability assay. 50 µL of conditioned medium (CM) from treated cells were transferred to a new 96 well plate for NO assay. This CM was mixed with the equal volume of the mixture of Gries reagent ((1% sulfanilamide and 0.1% N-1-napthylethylenediamine dihydrochloride). NaNO2 was used as standard and the colorimetric change were evidenced by measuring its OD at 540 nm in a microplate reader. The cells in the plate were incubated for 1 h with MTT solution making it the final concentration of […]. Blue stained cells were incubated with 200 ul of DMSO and the solution get changed to purple/formazan color and it was observed by measuring the absorbance at 570 nm in a microplate reader.NG-mono-methyl-L-arginine (L-NMMA), a well-known nitric oxide synthase (NOS) inhibitor, was used as a positive control.
# [2] = MTT cell viability assay; type: cell-based, murine; conditions: mouse, BV-2 microglia cells (LPS-activated), mean ± SD; for viability at 24 h, 1 µM: 1 μM compound; for viability at 24 h, 5 µM: 5 μM compound, % of LPS
# Protocol: as §1
# [3] = target: GSK3β (Homo sapiens, UniProt P49841); experiment: GSK3β radiolabelled kinase assay (% residual activity, IC50, ATP competition); type: biochemical; conditions: for remaining activity at 10 µM: at 10 μM compound
# [4] = target: T1, EIF2AK1 (Homo sapiens, UniProt Q9BQI3); experiment: Kinase panel assay (radiolabelled); type: biochemical; conditions: control GSK-2606414
# T1 construct: purchased Reaction Biology Corp
# Protocol: (§2) Every inhibitory activity of tested compounds was measured by radiolabelled method of Reaction Biology Corp). The radiolabelled ATP ([γ-^33P] ATP) replaced a substrate with ^33P-phosphorylated substrate so that the activity of a kinase was measured from the radiolabelled phosphorylated substrate. Kinase panel assay was tested at 30 μM testing compounds with an ATP concentration of 10 μM and a substrate concentration of 10 μM. % Residual activity against GSK3β was measured at 10 uM compounds 1 and 2. […] Curve fits of control compounds were performed where the enzyme activities at the highest concentration of compounds were less than 65%. The concentration of DMSO was controlled and raw data, % kinase activity was calculated relative to DMSO controls.
# [5] = target: T2, PDK1/PDHK1 (Homo sapiens, UniProt Q15118); experiment: Kinase panel assay (radiolabelled); type: biochemical; conditions: control GW5074
# T2 construct: purchased Reaction Biology Corp
# Protocol: as §2
# [6] = target: T3, PDK2/PDHK2 (Homo sapiens, UniProt Q15119); experiment: Kinase panel assay (radiolabelled); type: biochemical; conditions: control GW5074
# T3 construct: purchased Reaction Biology Corp
# Protocol: as §2
# [7] = target: T4, PDK3/PDHK3 (Homo sapiens, UniProt Q15120); experiment: Kinase panel assay (radiolabelled); type: biochemical; conditions: control GW5074
# T4 construct: purchased Reaction Biology Corp
# Protocol: as §2
# [8] = target: T5, PDK4/PDHK4 (Homo sapiens, UniProt Q16654); experiment: Kinase panel assay (radiolabelled); type: biochemical; conditions: control GW5074
# T5 construct: purchased Reaction Biology Corp
# Protocol: as §2
# [9] = target: T6, TRPM7/CHAK1 (Homo sapiens, UniProt Q96QT4); experiment: Kinase panel assay (radiolabelled); type: biochemical; conditions: control NH125
# T6 construct: purchased Reaction Biology Corp
# Protocol: as §2
# Sequence of GSK3β (P49841 whole entry): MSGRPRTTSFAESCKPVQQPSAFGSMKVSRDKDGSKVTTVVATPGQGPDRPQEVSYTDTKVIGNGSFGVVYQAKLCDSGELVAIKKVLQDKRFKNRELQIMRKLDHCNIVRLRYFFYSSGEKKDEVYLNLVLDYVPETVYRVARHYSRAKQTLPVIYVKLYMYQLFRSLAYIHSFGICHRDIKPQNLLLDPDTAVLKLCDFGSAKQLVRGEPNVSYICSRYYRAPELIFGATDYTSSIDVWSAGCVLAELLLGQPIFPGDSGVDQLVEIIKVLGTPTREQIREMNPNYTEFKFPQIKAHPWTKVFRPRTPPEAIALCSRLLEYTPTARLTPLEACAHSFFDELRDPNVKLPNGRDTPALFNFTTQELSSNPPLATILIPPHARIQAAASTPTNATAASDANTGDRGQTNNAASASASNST
# T4 sequence (Q15120 whole entry): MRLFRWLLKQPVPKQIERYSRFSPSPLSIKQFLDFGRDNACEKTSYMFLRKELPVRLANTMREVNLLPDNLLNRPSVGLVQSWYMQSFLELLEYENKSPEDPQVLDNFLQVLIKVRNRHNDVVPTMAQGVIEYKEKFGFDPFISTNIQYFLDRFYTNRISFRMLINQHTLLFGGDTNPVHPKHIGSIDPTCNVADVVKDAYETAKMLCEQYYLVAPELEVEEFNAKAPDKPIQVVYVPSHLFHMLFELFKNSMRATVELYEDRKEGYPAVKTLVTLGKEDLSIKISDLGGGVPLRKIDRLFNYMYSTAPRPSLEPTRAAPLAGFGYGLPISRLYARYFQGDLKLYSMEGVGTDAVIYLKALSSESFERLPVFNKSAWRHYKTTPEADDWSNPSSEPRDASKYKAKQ
# T2 sequence (Q15118 29-436): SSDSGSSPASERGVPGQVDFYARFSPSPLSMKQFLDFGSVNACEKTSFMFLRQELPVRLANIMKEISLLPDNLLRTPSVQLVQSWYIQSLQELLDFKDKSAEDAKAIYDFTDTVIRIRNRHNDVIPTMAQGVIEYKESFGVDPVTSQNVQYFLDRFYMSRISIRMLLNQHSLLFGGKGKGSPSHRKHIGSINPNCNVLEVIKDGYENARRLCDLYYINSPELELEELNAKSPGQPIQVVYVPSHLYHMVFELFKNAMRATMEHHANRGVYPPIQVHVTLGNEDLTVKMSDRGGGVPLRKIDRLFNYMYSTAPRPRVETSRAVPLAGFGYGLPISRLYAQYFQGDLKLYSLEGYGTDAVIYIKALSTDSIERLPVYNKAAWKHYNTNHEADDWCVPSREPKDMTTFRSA
# T6 sequence (Q96QT4 whole entry): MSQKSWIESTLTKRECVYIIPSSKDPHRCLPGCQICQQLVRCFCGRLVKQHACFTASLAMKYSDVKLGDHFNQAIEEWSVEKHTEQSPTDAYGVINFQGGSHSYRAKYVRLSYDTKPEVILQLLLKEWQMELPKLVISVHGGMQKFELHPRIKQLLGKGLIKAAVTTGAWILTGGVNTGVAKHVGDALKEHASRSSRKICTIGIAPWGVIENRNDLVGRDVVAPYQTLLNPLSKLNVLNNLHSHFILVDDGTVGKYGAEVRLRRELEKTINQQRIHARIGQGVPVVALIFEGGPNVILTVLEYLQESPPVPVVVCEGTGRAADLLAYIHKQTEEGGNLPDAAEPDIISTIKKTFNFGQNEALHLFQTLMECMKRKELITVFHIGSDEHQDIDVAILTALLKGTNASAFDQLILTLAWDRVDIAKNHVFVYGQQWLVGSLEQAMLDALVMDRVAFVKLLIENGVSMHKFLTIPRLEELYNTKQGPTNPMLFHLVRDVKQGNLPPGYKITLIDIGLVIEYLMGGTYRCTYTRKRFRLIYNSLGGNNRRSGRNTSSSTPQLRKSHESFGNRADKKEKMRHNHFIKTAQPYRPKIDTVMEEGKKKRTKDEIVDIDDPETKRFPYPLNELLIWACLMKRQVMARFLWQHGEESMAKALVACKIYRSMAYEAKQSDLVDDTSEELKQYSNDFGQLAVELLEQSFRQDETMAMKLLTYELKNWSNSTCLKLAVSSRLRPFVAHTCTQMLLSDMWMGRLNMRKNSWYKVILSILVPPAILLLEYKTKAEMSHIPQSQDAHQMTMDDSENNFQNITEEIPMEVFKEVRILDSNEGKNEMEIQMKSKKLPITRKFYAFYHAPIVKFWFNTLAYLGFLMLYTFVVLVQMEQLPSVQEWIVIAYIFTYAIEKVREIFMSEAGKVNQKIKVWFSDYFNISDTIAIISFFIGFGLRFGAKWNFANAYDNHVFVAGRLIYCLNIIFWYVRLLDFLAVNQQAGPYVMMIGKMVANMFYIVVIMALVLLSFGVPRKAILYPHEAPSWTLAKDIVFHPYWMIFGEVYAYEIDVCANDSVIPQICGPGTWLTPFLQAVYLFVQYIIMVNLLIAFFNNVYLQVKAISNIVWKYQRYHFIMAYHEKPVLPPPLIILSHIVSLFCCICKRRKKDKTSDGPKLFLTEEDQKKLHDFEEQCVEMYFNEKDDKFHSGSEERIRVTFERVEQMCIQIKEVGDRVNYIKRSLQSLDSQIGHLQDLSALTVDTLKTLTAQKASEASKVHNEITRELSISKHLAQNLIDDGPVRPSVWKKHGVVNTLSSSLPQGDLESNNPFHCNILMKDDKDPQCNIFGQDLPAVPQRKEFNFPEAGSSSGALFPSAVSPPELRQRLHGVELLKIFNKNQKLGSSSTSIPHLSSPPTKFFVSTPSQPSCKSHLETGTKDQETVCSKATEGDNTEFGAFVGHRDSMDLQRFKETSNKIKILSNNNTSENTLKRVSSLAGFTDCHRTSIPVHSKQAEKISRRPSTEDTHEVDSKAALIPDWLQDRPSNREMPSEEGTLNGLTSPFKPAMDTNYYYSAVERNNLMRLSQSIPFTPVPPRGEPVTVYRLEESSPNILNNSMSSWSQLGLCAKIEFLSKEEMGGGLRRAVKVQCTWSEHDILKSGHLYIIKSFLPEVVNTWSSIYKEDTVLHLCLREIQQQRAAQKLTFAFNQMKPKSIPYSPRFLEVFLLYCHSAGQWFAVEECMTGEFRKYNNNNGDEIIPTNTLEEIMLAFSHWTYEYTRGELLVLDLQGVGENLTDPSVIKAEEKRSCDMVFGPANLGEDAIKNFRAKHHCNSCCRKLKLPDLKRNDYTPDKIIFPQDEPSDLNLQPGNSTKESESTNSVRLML
# T1 sequence (Q9BQI3 whole entry): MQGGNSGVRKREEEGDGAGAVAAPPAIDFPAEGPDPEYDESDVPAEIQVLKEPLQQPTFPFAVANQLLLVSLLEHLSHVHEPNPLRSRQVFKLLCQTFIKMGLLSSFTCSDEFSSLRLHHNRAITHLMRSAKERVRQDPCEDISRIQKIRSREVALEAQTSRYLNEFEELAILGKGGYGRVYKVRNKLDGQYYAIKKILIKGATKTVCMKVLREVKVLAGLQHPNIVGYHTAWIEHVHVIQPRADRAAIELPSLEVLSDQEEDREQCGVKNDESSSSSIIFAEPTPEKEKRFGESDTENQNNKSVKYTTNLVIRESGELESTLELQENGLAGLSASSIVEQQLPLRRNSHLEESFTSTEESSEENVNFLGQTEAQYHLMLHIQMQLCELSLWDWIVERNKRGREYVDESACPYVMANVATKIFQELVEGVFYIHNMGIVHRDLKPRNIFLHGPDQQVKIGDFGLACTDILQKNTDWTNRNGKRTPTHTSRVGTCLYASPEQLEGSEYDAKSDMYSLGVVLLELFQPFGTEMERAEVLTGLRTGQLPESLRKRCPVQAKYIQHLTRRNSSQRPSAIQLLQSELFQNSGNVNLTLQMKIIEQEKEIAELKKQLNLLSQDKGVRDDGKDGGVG
# T5 sequence (Q16654 whole entry): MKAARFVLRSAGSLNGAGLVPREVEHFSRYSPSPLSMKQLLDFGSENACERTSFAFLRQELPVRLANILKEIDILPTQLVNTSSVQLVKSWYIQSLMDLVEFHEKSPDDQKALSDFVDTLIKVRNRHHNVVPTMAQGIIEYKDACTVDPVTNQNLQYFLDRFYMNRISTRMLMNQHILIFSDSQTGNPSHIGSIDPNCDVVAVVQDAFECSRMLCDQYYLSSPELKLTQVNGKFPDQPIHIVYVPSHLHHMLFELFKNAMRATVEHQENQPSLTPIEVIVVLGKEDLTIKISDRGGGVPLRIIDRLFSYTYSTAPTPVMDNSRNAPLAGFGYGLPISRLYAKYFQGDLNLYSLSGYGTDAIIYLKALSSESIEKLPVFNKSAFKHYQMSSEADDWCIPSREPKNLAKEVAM
Structure (SMILES),IC50 [1] [nM],"viability at 24 h, 5 µM [2] [%]",remaining activity at 10 µM [3] [%],further results
O=C1C=CC2(C=C1)OCC(Cc1ccccc1)C(=O)N2c1ccccc1 (centres unmarked) [1a],540,74 ± 7,85.8 ± 16.1,"viability at 24 h, 1 µM [2]: 95 ± 6.87%"
"O=C1C=CC2(C=C1)OCC(Cc1cn(-c3cccnc3)nn1)C(=O)N2c1ccccc1 (centres unmarked) [2b, 5-Phenyl-3-((1-(pyridin-3-yl)-1H-1,2,3-triazol-4-yl)methyl)-1-oxa-5-azaspiro[5.5]undeca-7,10-diene-4,9-dione]",870 ± 110,120 ± 11,87.5 ± 0.6,–
"O=C1C=CC2(C=C1)OCC(Cc1cn(-c3ccc(F)cc3)nn1)C(=O)N2c1ccccc1 (centres unmarked) [2c, 3-((1-(4-Fluorophenyl)-1H-1,2,3-triazol-4-yl)methyl)-5-phenyl-1-oxa-5-azaspiro[5.5]undeca-7,10-diene-4,9-dione]",780 ± 40,109 ± 13,84.8 ± 5.3,–
"O=C1C=CC2(C=C1)OCC(Cc1cn(-c3ccc(Br)cc3)nn1)C(=O)N2c1ccccc1 (centres unmarked) [2e, 3-((1-(4-Bromophenyl)-1H-1,2,3-triazol-4-yl)methyl)-5-phenyl-1-oxa-5-azaspiro[5.5]undeca-7,10-diene-4,9-dione]",670 ± 10,93 ± 6,69.6 ± 5.1,"viability at 24 h, 1 µM [2]: 106 ± 1.28%"
"O=C1C=CC2(C=C1)OCC(Cc1cn(-c3ccc(C(F)(F)F)cc3)nn1)C(=O)N2c1ccccc1 (centres unmarked) [2f, 5-Phenyl-3-((1-(4-(trifluoromethyl)phenyl)-1H-1,2,3-triazol-4-yl)methyl)-1-oxa-5-azaspiro[5.5]undeca-7,10-diene-4,9-dione]",770 ± 20,115 ± 3,96.3 ± 16.5,–
"N#Cc1cccc(-n2cc(CC3COC4(C=CC(=O)C=C4)N(c4ccccc4)C3=O)nn2)c1 (centres unmarked) [2g, 3-(4-((4,9-Dioxo-5-phenyl-1-oxa-5-azaspiro[5.5]undeca-7,10-dien-3-yl)methyl)-1H-1,2,3-triazol-1-yl)benzonitrile]",800 ± 130,128 ± 17,41.8 ± 0.9,–
"COc1ccc(-n2cc(CC3COC4(C=CC(=O)C=C4)N(c4ccccc4)C3=O)nn2)cc1 (centres unmarked) [2h, 3-((1-(4-Methoxyphenyl)-1H-1,2,3-triazol-4-yl)methyl)-5-phenyl-1-oxa-5-azaspiro[5.5]undeca-7,10-diene-4,9-dione]",760 ± 10,124 ± 7,112 ± 4.5,–
"CSc1ccc(-n2cc(CC3COC4(C=CC(=O)C=C4)N(c4ccccc4)C3=O)nn2)cc1 (centres unmarked) [2i, 3-((1-(4-(Methylthio)phenyl)-1H-1,2,3-triazol-4-yl)methyl)-5-phenyl-1-oxa-5-azaspiro[5.5]undeca-7,10-diene-4,9-dione]",980 ± 40,121 ± 2,66.9 ± 11.4,–
"O=C1C=CC2(C=C1)OCC(Cc1cn(-c3cccc(Cc4ccccc4)c3)nn1)C(=O)N2c1ccccc1 (centres unmarked) [2j, 3-((1-(3-Benzylphenyl)-1H-1,2,3-triazol-4-yl)methyl)-5-phenyl-1-oxa-5-azaspiro[5.5]undeca-7,10-diene-4,9-dione]",630 ± 10,74 ± 4,10.5 ± 2,"viability at 24 h, 1 µM [2]: 107 ± 6.88%; IC50 ([3]; ATP 1 µM, 10-dose, threefold dilution from 10 μM, read-out: IC50 of GSK3β activity): 2650 nM; IC50 ([3]; ATP 10 µM, 10-dose, threefold dilution from 10 μM, read-out: IC50 of GSK3β activity): 3530 nM; IC50 ([3]; ATP 50 µM, 10-dose, threefold dilution from 10 μM, read-out: IC50 of GSK3β activity): 3790 nM; IC50 ([3]; ATP 100 µM, 10-dose, threefold dilution from 10 μM, read-out: IC50 of GSK3β activity): 4040 nM; IC50 ([3]; ATP 200 µM, 10-dose, threefold dilution from 10 μM, read-out: IC50 of GSK3β activity): 3450 nM; dependence of GSK3β IC50 on ATP concentration ([3]; ATP 1, 10, 50, 100 and 200 µM): retained its IC50 activity regardless of the ATP concentration"
"O=C1C=CC2(C=C1)OCC(Cc1cn(-c3ccc(S(=O)(=O)C(F)(F)F)cc3)nn1)C(=O)N2c1ccccc1 (centres unmarked) [2k, 5-Phenyl-3-((1-(4-((trifluoromethyl)sulfonyl)phenyl)-1H-1,2,3-triazol-4-yl)methyl)-1-oxa-5-azaspiro[5.5]undeca-7,10-diene-4,9-dione]",770 ± 60,71 ± 3,35.1 ± 4.2,–
"CC(=O)Nc1ccc(-n2cc(CC3COC4(C=CC(=O)C=C4)N(c4ccccc4)C3=O)nn2)cc1 (centres unmarked) [2l, N-(4-(4-((4,9-Dioxo-5-phenyl-1-oxa-5-azaspiro[5.5]undeca-7,10-dien-3-yl)methyl)-1H-1,2,3-triazol-1-yl)phenyl)acetamide]",930 ± 60,109 ± 16,122 ± 2.3,–
"COc1cc(OC)cc(-n2cc(CC3COC4(C=CC(=O)C=C4)N(c4ccccc4)C3=O)nn2)c1 (centres unmarked) [2m, 3-((1-(3,5-B=Dimethoxyphenyl)-1H-1,2,3-triazol-4-yl)methyl)-5-phenyl-1-oxa-5-azaspiro[5.5]undeca-7,10-diene-4,9-dione]",1220 ± 300,108 ± 5,114 ± 4.5,–
"COc1cc(-n2cc(CC3COC4(C=CC(=O)C=C4)N(c4ccccc4)C3=O)nn2)ccc1F (centres unmarked) [2n, 3-((1-(4-fluoro-3-methoxyphenyl)-1H-1,2,3-triazol-4-yl)methyl)-5-phenyl-1-oxa-5-azaspiro[5.5]undeca-7,10-diene-4,9-dione]",850 ± 40,102 ± 8,85.6 ± 2,–
"O=C1C=CC2(C=C1)OCC(Cc1cn(-c3ccc4c(c3)OCO4)nn1)C(=O)N2c1ccccc1 (centres unmarked) [2o, 3-((1-(benzo[d][1,3]dioxol-5-yl)-1H-1,2,3-triazol-4-yl)methyl)-5-phenyl-1-oxa-5-azaspiro[5.5]undeca-7,10-diene-4,9-dione]",740 ± 80,89 ± 8,75 ± 0.7,–
"Cc1cc(=O)oc2cc(-n3cc(CC4COC5(C=CC(=O)C=C5)N(c5ccccc5)C4=O)nn3)ccc12 (centres unmarked) [2p, 3-((1-(4-methyl-2-oxo-2H-chromen-7-yl)-1H-1,2,3-triazol-4-yl)methyl)-5-phenyl-1-oxa-5-azaspiro[5.5]undeca-7,10-diene-4,9-dione]",850 ± 190,97 ± 2,35.7 ± 3.7,"IC50 ([3]; ATP 1 μM (Table 2), read-out: IC50 on GSK3β (converted)): 11400 nM"
"O=C1C=CC2(C=C1)OCC(Cc1cn(C34CC5CC(CC(C5)C3)C4)nn1)C(=O)N2c1ccccc1 [2q, 3-((1-((3R,5S)-adamantan-1-yl)-1H-1,2,3-triazol-4-yl)methyl)-5-phenyl-1-oxa-5-azaspiro[5.5]undeca-7,10-diene-4,9-dione]",780 ± 100,87 ± 7,71.6 ± 1.4,–
"O=C1C=CC2(C=C1)OCC(Cc1cn(Cc3ccccc3)nn1)C(=O)N2c1ccccc1 (centres unmarked) [2r, 3-((1-Benzyl-1H-1,2,3-triazol-4-yl)methyl)-5-phenyl-1-oxa-5-azaspiro[5.5]undeca-7,10-diene-4,9-dione]",650 ± 60,75 ± 11,61.7 ± 13.8,"viability at 24 h, 1 µM [2]: 101.3 ± 0.67%"
"Cn1cc(-c2ccc3c(c2)CCN3C(=O)Cc2cccc(C(F)(F)F)c2)c2c(N)ncnc21 [GSK-2606414, reference compound]",–,–,–,IC50 [4]: 106 nM
"O=C1Nc2ccc(I)cc2/C1=C/c1cc(Br)c(O)c(Br)c1 [GW5074, reference compound]",–,–,–,IC50 [5]: 12100 nM; IC50 [6]: 3280 nM; IC50 [7]: 1820 nM; IC50 [8]: 2120 nM
"[H]/N=C(/NC)NCCC[C@H](N)C(=O)O [L-NMMA, NG-mono-methyl-L-arginine, reference compound]",19600 ± 420,105 ± 4,–,"viability at 24 h, 1 µM [2]: 101 ± 1.6%"
"CCCCCCCCCCCCCCCCn1cc[n+](Cc2ccccc2)c1C [NH125, reference compound]",–,–,–,IC50 [9]: 5860 nM
"C#CCC1COC2(C=CC(=O)C=C2)N(c2ccccc2)C1=O (centres unmarked) [compound 7, 5-Phenyl-3-(prop-2-yn-1-yl)-1-oxa-5-azaspiro[5.5]undeca-7,10-diene-4,9-dione]",680 ± 70,100 ± 24,55.7 ± 8.4,–
